{
  "source": "patent US9868736B2",
  "about": "“Deubiquitinase inhibitors and methods for use of the same” (THE REGENTS OF THE UNIVERSITY OF MICHIGAN, priority 2013, dated 2018)",
  "key": {"Usp9x": {"target": "Usp9x (Homo sapiens, UniProt Q93008)", "sequence (Q93008 whole entry)": "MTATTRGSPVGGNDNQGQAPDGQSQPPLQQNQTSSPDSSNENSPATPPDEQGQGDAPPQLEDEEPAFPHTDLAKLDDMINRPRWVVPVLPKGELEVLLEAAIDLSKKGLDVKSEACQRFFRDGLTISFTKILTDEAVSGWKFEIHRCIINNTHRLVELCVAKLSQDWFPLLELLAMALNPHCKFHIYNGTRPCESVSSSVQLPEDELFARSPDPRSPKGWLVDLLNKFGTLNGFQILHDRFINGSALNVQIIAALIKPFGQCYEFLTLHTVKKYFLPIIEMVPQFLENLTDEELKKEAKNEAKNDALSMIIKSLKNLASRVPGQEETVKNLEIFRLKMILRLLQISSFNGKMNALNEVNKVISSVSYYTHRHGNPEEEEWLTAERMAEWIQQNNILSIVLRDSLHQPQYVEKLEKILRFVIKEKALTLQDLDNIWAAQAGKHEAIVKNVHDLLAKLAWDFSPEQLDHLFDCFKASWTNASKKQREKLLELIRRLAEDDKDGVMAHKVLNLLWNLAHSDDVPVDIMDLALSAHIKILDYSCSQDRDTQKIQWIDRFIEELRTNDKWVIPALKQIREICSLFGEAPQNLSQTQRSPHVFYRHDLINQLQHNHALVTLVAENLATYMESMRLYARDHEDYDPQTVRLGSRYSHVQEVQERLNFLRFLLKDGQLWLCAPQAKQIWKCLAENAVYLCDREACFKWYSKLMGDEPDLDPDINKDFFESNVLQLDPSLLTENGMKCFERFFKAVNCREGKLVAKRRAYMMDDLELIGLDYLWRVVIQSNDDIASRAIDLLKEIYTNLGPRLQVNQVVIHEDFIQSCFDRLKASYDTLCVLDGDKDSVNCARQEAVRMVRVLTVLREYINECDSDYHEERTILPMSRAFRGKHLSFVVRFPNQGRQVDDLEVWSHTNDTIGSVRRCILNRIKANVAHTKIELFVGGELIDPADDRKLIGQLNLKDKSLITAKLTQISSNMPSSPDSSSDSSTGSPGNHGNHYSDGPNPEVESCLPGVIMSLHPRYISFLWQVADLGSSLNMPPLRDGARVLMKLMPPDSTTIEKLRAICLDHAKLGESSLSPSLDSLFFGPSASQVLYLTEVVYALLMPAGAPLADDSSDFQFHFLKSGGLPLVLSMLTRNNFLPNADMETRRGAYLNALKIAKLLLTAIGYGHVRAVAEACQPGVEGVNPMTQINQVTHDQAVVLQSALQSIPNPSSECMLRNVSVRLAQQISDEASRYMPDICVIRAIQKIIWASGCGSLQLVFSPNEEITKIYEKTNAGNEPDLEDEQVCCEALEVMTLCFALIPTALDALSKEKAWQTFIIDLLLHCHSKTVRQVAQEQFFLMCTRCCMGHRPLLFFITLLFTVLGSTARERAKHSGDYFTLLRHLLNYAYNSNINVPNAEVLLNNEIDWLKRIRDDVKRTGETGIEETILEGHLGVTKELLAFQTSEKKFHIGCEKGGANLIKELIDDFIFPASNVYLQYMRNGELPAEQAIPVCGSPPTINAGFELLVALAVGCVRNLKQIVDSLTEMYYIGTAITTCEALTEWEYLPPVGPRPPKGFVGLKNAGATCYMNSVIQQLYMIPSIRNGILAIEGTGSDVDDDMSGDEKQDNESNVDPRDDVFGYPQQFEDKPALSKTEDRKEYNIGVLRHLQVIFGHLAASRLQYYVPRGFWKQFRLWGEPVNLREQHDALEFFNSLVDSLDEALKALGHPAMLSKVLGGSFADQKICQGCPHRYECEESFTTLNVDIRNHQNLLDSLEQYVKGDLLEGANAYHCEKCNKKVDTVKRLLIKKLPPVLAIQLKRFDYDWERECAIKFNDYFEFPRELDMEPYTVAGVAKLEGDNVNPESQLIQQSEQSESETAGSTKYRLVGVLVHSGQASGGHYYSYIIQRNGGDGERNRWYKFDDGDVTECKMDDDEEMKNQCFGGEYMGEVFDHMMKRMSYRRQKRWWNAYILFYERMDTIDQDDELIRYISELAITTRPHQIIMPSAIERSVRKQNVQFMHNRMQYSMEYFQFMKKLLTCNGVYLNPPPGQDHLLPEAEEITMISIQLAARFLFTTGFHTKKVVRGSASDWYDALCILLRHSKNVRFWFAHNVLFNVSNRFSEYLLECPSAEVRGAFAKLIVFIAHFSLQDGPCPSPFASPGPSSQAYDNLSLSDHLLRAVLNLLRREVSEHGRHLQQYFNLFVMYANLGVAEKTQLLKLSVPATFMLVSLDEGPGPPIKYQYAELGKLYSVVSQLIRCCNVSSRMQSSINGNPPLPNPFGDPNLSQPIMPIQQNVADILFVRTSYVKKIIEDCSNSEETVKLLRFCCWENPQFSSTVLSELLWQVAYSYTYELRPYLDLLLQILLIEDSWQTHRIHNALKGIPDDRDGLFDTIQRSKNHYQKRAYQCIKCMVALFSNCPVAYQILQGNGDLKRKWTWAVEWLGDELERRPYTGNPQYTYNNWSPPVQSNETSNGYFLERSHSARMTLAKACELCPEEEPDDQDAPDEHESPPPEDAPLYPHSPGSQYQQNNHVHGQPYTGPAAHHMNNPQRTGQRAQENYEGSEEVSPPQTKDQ", "assay": "Usp9x activity, Mcl-1 and PARP in tumors extracted from treated mice", "assay_type": "in vivo, NSG mice", "set-up": "from tissue; host or cells: MM1.S xenograft tumour extracted from NSG mice", "details": "15 mg/kg, tumors extracted one hour after last injection", "procedure": "To analyze that potential, mice were euthanized one hour after their last injection and tumors were extracted, photographed and flash-frozen on dry ice. Tumor tissue was sheared in liquid nitrogen, ground to a powder with a mortar and pestle and proteins extracted to assess Usp9x activity in 20 μg of protein from each tumor specimen. Tumors extracted from control and 15 mg/kg G9 treated mice were assessed for Usp9x activity as described above. […] Also shown are the effects of treatment on Usp9x and Usp24 protein, the latter a DUB closely related to Usp9x. The effect of G9 on the Usp9x substrate Mcl-1, and on cleavage of caspase substrate PARP, are also shown."}, "[1]": {"target": "T1, catalytic domain of Usp9x (Usp9xCD) (Homo sapiens, UniProt Q93008)", "T1 construct": "DNA corresponding to amino acids 1553-1960 of human Usp9x; His6-Smt3 (SUMO) fusion tag, ULP1-cleavable (N, cleaved yes); made in house; host or cells: E. coli", "T1 sequence (Q93008 1553-1960)": "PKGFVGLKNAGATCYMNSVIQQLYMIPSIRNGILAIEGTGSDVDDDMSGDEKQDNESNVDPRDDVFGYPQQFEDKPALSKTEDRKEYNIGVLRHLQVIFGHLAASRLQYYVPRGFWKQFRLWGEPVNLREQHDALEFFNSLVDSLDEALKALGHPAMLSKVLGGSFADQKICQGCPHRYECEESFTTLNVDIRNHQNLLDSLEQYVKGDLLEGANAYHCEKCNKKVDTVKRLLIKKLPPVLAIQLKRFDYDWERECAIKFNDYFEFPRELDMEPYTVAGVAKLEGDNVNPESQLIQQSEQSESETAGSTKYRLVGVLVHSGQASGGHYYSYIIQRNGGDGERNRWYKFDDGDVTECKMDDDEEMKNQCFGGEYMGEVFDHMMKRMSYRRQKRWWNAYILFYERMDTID", "assay": "Usp9xCD Ub-AMC enzyme assay", "assay_type": "biochemical", "details": "screen of 210 structures", "procedure": "A series of chemical modifications were initiated to increase our structure activity relationship (SAR) analysis of inhibitors. […] The DNA was cloned into a ULP1-protease cleavable N-terminal His6-Smt3-fusion tag expression vector, derived from pET-28. Protein expression was induced at OD600 2.0, in TB media with Kanamycin overnight at 16° C. Cells were harvested and flash frozen before use. […] Protein was concentrated to roughly 20-40 mg/ml before aliquots were flash-frozen. All steps were performed in the presence of reducing agents, either BME, DTT, or TCEP.\nPurified recombinant enzyme in buffer containing 2 mM DTT was buffer exchanged into 25 mM Tris-HCl, 50 mM NaCl and 1 mg/ml BSA using a spin column. […] IC50 values were estimated by integrating the slope of each reaction using GraphPad 6.\nTwo hundred and ten (210) novel chemical structures were screened for Usp9xCD inhibitory activity using this assay. […] Fluorescent scans were used to assess Usp9xCD inhibitory activity in this enzyme assay for all compounds of interest. Each assay was performed in duplicate and the linear region of each reaction curve was used to calculate IC50 values for Usp9xCD inhibition which are tabulated in Table 1."}, "MM1.S tumor": {"system": "MM1.S tumor", "assay": "MM1.S tumor growth in NSG mice", "assay_type": "in vivo, NOD/SCID/gamma-2 knockout mice (NSG)", "procedure": "Ten million MM1.S tumor cells were injected into the dorsal region of twenty female NOD/SCID/gamma-2 knockout mice (NSG) weighing ˜20 grams each. After 3 weeks tumors became visible and measurable with calipers. Mice were separated into four groups of 5 mice each and IP injected with G9 dissolved in 55% dimethyl sulfoxide, 25% polyethylene glycol 300, 20% phosphate-buffered saline at dose levels of 0, 2.5, 5 and 10 mg/kg mouse body weight. Animals were injected once per day for 14 days and tumor growth (measured with calipers) and animal weight were monitored over the treatment interval. The resulting changes in tumor growth for each group are shown and represented as the average+/−standard error of the mean for each group. The p-values were calculated using GraphPad InStat. P-values lower than 0.05 are considered significant. […] Animal weight was not affected by G9 injection in any of the mice. […] Twenty female NSG mice were inoculated subcutaneously with 10 million MM1.S cells in Matrigel and cell culture media (1:1) in a total volume of 0.1 mL. When tumors were measurable with calibers (3 weeks post tumor cell injection), mice were divided into 4 groups of five mice each and treated with the dose of G9 indicated. Tumor growth (left) and animal weight (right) were recorded at the interval noted. The results represent the average+/−SD of 5 animals per data point. P-values <0.05 are considered significant and were calculated using GraphPad InStat.\nA second animal study was conducted in NSG mice with mice receiving higher dose levels of G9. Tumor inoculation and compound administration were similar to those utilized in the lower dose study. However, 3 mice per treatment group were used in this study and additional G9 doses were tested for safety and efficacy. […] NSG mice were inoculated with MM1.S tumors as described in FIG. 7. When tumors were measurable with calipers, mice were placed into 5 groups of 3 mice each and treated with G9 at 0, 5, 10, 15 and 20 mg/kg for 12 days with daily injection. Tumor size (left) and animal weight (right) were recorded over the treatment interval. […] The result of G9 treatment is also depicted as tumor volume over time for each treatment group (FIG. 4—top). Tumors extracted from each of the three mice in each treatment group following the last injection were photographed and shown in FIG. 4 (bottom). […] Control and treated mouse tumor sizes are shown on the left. Bars from left to right in each treatment group represent tumor size after 0, 4, 6, 8 and 11 days of treatment. Each bar represents the average+/−S.D. of measurements made in 3 mice per group. The significance of change in tumor volume between treated and control mice was calculated using GraphPad InStat. P-values<0.05 are considered significant. On the bottom, tumors were extracted from control and treated mice and photographed. Each row illustrates tumor from each of the three mice in the treatment group noted on the top of each row."}, "[2]": {"system": "murine norovirus, Tulane virus, Listeria monocytogenes, Toxoplasma gondii, Norwalk virus", "assay": "inhibition of category A and B pathogens"}, "murine norovirus": {"system": "murine norovirus", "assay": "antiviral screen against murine norovirus in macrophages", "assay_type": "cell-based", "details": "RAW cells, Swiss Webster and Balb/c bone marrow derived macrophages, FIG. 8", "from_the_text": "G9 was screened in RAW cells, Swiss Webster bone marrow derived macrophages and Balb/c bone marrow derived macrophages, compared to vehicle (DMSO), prior compound WP1130 and compound VM030. […] VM030 has a structure of […]"}},
  "data": [
    {"smiles": "CCCC(NC(=O)/C(C#N)=C/c1nc(Cl)ccc1Cl)c1ccc(OCCN2CCOCC2)cc1", "note": "(stereo not drawn) [Compound G9, (E)-2-Cyano-3-(3,6-dichloropyridin-2-yl)-N-(1-(4-(2-morpholinoethoxy)phenyl)butyl)acrylamide]", "values": [
      {"measurement": "Mcl-1 protein levels in MM1.S tumors", "setting": "Usp9x", "result": "reduces Mcl-1 protein levels"},
      {"measurement": "Usp9x DUB activity in MM1.S tumors", "setting": "Usp9x", "result": "reduces Usp9x DUB activity"},
      {"measurement": "apoptosis (PARP cleavage) in MM1.S tumors", "setting": "Usp9x", "result": "activates apoptosis"},
      {"measurement": "Usp9xCD inhibitory activity compared to WP1130", "setting": "[1]", "result": "superior inhibitors of Usp9xCD"},
      {"measurement": "animal weight", "setting": "MM1.S tumor; IP once per day for 14 days, 2.5, 5 and 10 mg/kg", "result": "not affected"},
      {"measurement": "MM1.S tumor growth", "setting": "MM1.S tumor; IP once per day for 14 days, 2.5, 5 and 10 mg/kg (all doses)", "result": "reduced MM1.S tumor growth"},
      {"measurement": "MM1.S tumor growth compared to controls", "setting": "MM1.S tumor; IP once per day for 14 days, 5 and 10 mg/kg", "result": "significant reduction in MM1.S tumor growth"},
      {"measurement": "MM1.S tumor growth", "setting": "MM1.S tumor; daily injection for 12 days, 5, 10, 15 and 20 mg/kg (all doses)", "result": "suppressed MM1.S tumor growth"},
      {"measurement": "animal weight", "setting": "MM1.S tumor; daily injection for 12 days, 10-20 mg/kg", "result": "some weight loss"},
      {"measurement": "MM1.S tumor size", "setting": "MM1.S tumor; daily injection for 12 days, 15 and 20 mg/kg", "result": "tumor regression"},
      {"measurement": "inhibition of category A and B pathogens and related family members", "setting": "[2]", "result": "potent inhibitor"},
      {"measurement": "antiviral activity against murine norovirus", "setting": "murine norovirus", "result": "exhibits antiviral activity against murine norovirus"}
    ]}
  ]
}
